The values that follow come from US10835540B2, “Pharmaceutical use” (Lucolas-M.D. Ltd., priority 2011, dated 2020).

This data set concerns mastodynia. The data set is described as follows: Previous prescriptions for pre-menstrual breast pain (anamnesis, Example 8). It is filed as in vivo, human. As to conditions: Example 8 patient; for effect of previous prescription on breast pain symptoms: 'The same applies' in b116 refers to 'basically without any effect'. The source says: Pre-menstrual syndrome with symptoms of strong pain in both breasts since puberty. Dynamic increase of the symptoms with extremely strong tactile sensitivity, strong sensation of swelling and tension with pain symptoms diffusely radiating into the chest and the arms, which becomes virtually unbearable until the beginning of the menstruation. Unable to work because of these conditions for 2-4 days per month since 3 years. Intimate touching not possible for 14 days per month due to the pathologic tactile hyper-sensitivity. Fading-away of the symptoms only 7-10 days after the beginning of the menstruation.

Each structure is given as a SMILES string.

Take `CC(C)C[C@H]1C(=O)N2CCC[C@H]2[C@]2(O)O[C@](NC(=O)[C@@H]3C=C4c5cccc6[nH]c(Br)c(c56)C[C@H]4N(C)C3)(C(C)C)C(=O)N12` [Bromocriptin]: the “effect of previous prescription on breast pain symptoms” value is listed as “The same applies”.

With `C#C[C@]1(O)CC[C@H]2[C@@H]3CCC4=Cc5oncc5C[C@]4(C)[C@H]3CC[C@@]21C` [Danazol], the “effect of previous prescription on breast pain symptoms” value is recorded as “The same applies”. As for `CC/C(=C(\c1ccccc1)c1ccc(OCCN(C)C)cc1)c1ccccc1` [Tamoxifen], the “effect on breast pain symptoms” value (20 mg) is reported as “considerable alleviation of the symptoms”. Besides, the side-effects result (20 mg, mainly cardiovascular, led to quitting the therapy) was “uncontrolled increase of blood pressure”.
